According to patent publication US10954252B1, “Inhibitors of human immunodeficiency virus replication” (ViiV HEALTHCARE UK (NO.5) LIMITED, priority 2017, dated 2021):

Key:
uninfected MT2 cells = experiment: Compound cytotoxicity, XTT-based colorimetric assay; format: cell-based
In short: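 XTT colorimetric read-out on day 4 gave CC50 values, using MT2 cells left uninfected but otherwise handled as in the antiviral assay.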

[1] = test system: recombinant NL4-3 virus (nef section replaced with Renilla luciferase gene) in MT-2 cells; experiment: HIV cell culture assay (antiviral activity, luciferase readout); format: cell-based; details: MT-2 cells infected for 4-5 days with recombinant NL4-3 luciferase virus
In short: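 Serially diluted compounds were present throughout a 4-5 day infection of MT-2 cells by recombinant NL4-3 whose nef region partly encodes Renilla luciferase. Antiviral activity was taken from live-cell luciferase signal, with the 50% effective concentration fitted by the exponential median effect equation.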

| SMILES | CC50 (uninfected MT2 cells; Table 1a, day 4, XTT) [nM] | EC50 ([1]; Table 1a) [nM] | CC50 (uninfected MT2 cells; Table 1, day 4, XTT) [nM] | EC50 ([1]; Table 1) [nM] | EC50 ([1]; Renilla, NL43, Table 1a) [nM] |
| --- | --- | --- | --- | --- | --- |
| Cn1ccc2nc([C@H](Cc3cc(F)cc(F)c3)NC(=O)Cn3nc(C(F)F)c4c3C(F)(F)[C@@H]3C[C@H]43)c(-c3ccc(Cl)c4c(NS(C)(=O)=O)nn(C)c34)cc21 (single isomer, unassigned) [Example 120] | > 10000 | 0.0753 | – | – | – |
| Cn1nc(NS(C)(=O)=O)c2c(Cl)ccc(-n3c([C@H](Cc4cc(F)cc(F)c4)NC(=O)Cn4ccc(C(F)(F)F)n4)nc4cc(C(F)(F)F)ccc4c3=O)c21 (single isomer, unassigned) [Example 142] | > 1000 | 4.98 | – | – | – |
| COc1cccc2nc([C@H](Cc3cc(F)cc(F)c3)NC(=O)Cn3nc(C(F)F)c4c3C(F)(F)[C@@H]3C[C@H]43)n(-c3ccc(Cl)c4c(NS(C)(=O)=O)nn(C)c34)c(=O)c12 (mixture of isomers) [Example 170, N—((S)-1-(3-(4-chloro-1-methyl-3-(methylsulfonamido)-1H-indazol-7-yl)-5-methoxy-4-oxo-3,4-dihydroquinazolin-2-yl)-2-(3,5-difluorophenyl)ethyl)-2-((3bS,4aR)-3-(difluoromethyl)-5,5-difluoro-3b,4,4a,5-tetrahydro-1H-cyclopropa[3,4]cyclopenta[1,2-c]pyrazol-1-yl)acetamide] | > 1000 | 0.052 | – | – | – |
| Cn1nc(NS(C)(=O)=O)c2c(Cl)ccc(-n3c([C@H](Cc4cc(F)cc(F)c4)NC(=O)Cn4ccc(C5CC5)n4)nc4ccc(OC(F)(F)F)cc4c3=O)c21 (single isomer, unassigned) [Example 153] | > 1000 | 0.97 | – | – | – |
| O=C(Cn1nc(C(F)F)c2c1C(F)(F)[C@@H]1C[C@H]21)N[C@H](Cc1cc(F)cc(F)c1)c1nc2cn[nH]c2cc1-c1ccc2scnc2c1 (single isomer, unassigned) [Example 3.2] | – | – | 12700 | 960 | – |
| Cn1nc(NS(C)(=O)=O)c2c(Cl)ccc(-n3c([C@H](Cc4cc(F)cc(F)c4)NC(=O)Cn4nc(C(F)F)c5c4C(F)(F)[C@@H]4C[C@H]54)nc4cc(C(C)(C)S(C)(=O)=O)ccc4c3=O)c21 (mixture of isomers) [Example 208, N—((S)-1-(3-(4-chloro-1-methyl-3-(methylsulfonamido)-1H-indazol-7-yl)-7-(2-(methylsulfonyl)propan-2-yl)-4-oxo-3,4-dihydroquinazolin-2-yl)-2-(3,5-difluorophenyl)ethyl)-2-((3bS,4aR)-3-(difluoromethyl)-5,5-difluoro-3b,4,4a,5-tetrahydro-1H-cyclopropa[3,4]cyclopenta[1,2-c]pyrazol-1-yl)acetamide] | > 1000 | 0.083 | – | – | – |
| Cn1nc(NS(C)(=O)=O)c2c(Cl)ccc(-n3c([C@H](Cc4cc(F)cc(F)c4)NC(=O)Cn4nc(C(F)F)c5c4C(F)(F)[C@@H]4C[C@H]54)nc4c(F)ccc(F)c4c3=O)c21 (single isomer, unassigned) [Example 148] | > 1000 | 0.13 | – | – | – |
| Cc1cccc2nc([C@H](Cc3cc(F)cc(F)c3)NC(=O)Cn3ccc(C4CC4)n3)n(-c3ccc(Cl)c4c(NS(C)(=O)=O)nn(C)c34)c(=O)c12 (single isomer, unassigned) [Example 134] | > 1000 | 2.21 | – | – | – |
| Cn1nc(NS(C)(=O)=O)c2c(Cl)ccc(-n3c([C@H](Cc4cc(F)cc(F)c4)NC(=O)Cn4ccc(C5CC5)n4)nc4cc(CS(C)(=O)=O)ccc4c3=O)c21 (single isomer, unassigned) [Example 206] | > 1000 | – | – | – | 0.64 |
| Cc1nc2nc(C(Cc3cc(F)cc(F)c3)NC(=O)Cn3nc(C(F)F)c4c3C(F)(F)[C@@H]3C[C@H]43)c(-c3ccc(Cl)c4c(NS(C)(=O)=O)nn(C)c34)cc2s1 (single isomer, unassigned) [Example 2.2] | – | – | > 10000 | 1150 | – |
| Cn1nc(NS(C)(=O)=O)c2c(Cl)ccc(-c3cc4ccccc4nc3C(Cc3cc(F)cc(F)c3)NC(=O)Cn3nc(C(F)F)c4c3C(F)(F)[C@@H]3C[C@H]43)c21 (single isomer, unassigned) [Example 8.2] | – | – | > 10000 | 180 | – |
| O=C(Cn1nc(C(F)F)c2c1C(F)(F)[C@@H]1C[C@H]21)NC(Cc1cc(F)cc(F)c1)c1nc2ncsc2cc1-c1ccc2scnc2c1 (single isomer, unassigned) [Example 1.2] | – | – | > 33300 | 2850 | – |
| Cn1nc(NS(C)(=O)=O)c2c(Cl)ccc(-c3c(C(Cc4cc(F)cc(F)c4)NC(=O)Cn4nc(C(F)F)c5c4C(F)(F)[C@@H]4C[C@H]54)ncc4[nH]cnc34)c21 (single isomer, unassigned) [Example 7.6] | – | – | > 10000 | 8.1 | – |
| COc1cccc2c(=O)n(-c3ccc(Cl)c4c(NS(C)(=O)=O)nn(C)c34)c([C@H](Cc3cc(F)cc(F)c3)NC(=O)Cn3nc(C(F)F)c4c3C(F)(F)[C@@H]3C[C@H]43)nc12 (single isomer, unassigned) [Example 104] | > 1000 | – | – | – | 0.064 |
| Cn1nc(NS(C)(=O)=O)c2c(Cl)ccc(-n3c([C@H](Cc4cc(F)cc(F)c4)NC(=O)Cn4nc(C(F)F)c5c4C(F)(F)[C@@H]4C[C@H]54)nc4cc(Cl)cc(Cl)c4c3=O)c21 (single isomer, unassigned) [Example 180] | > 1000 | 87.4 | – | – | – |
| Cn1nc(NS(C)(=O)=O)c2c(Cl)ccc(-n3c([C@H](Cc4cc(F)cc(F)c4)NC(=O)Cn4ccc(C5CC5)n4)nc4c(F)ccc(F)c4c3=O)c21 (single isomer, unassigned) [Example 146] | > 1000 | 0.62 | – | – | – |
| Cn1nc(NS(C)(=O)=O)c2c(Cl)ccc(-c3c(C(Cc4cc(F)cc(F)c4)NC(=O)Cn4nc(C(F)F)c5c4C(F)(F)[C@@H]4C[C@H]54)ncc4[nH]cnc34)c21 (single isomer, unassigned) [Example 7.5] | – | – | > 10000 | 1320 | – |
| Cn1nc(NS(C)(=O)=O)c2c(Cl)ccc(-n3c([C@H](Cc4cc(F)cc(F)c4)NC(=O)Cn4ccc(C(F)(F)F)n4)nc4ccc(OC(F)(F)F)cc4c3=O)c21 (single isomer, unassigned) [Example 144] | > 1000 | 8.08 | – | – | – |
| Cn1nc(NS(C)(=O)=O)c2c(Cl)ccc(-n3c([C@H](Cc4cc(F)cc(F)c4)NC(=O)Cn4nc(C(F)F)c5c4C(F)(F)[C@@H]4C[C@H]54)nc4c(Cl)cccc4c3=O)c21 (single isomer, unassigned) [Example 102] | > 1000 | 1.04 | – | – | – |
| Cn1nc(NS(C)(=O)=O)c2c(Cl)ccc(-c3cc4scnc4nc3C(Cc3cc(F)cc(F)c3)NC(=O)Cn3nc(C(F)F)c4c3C(F)(F)[C@@H]3C[C@H]43)c21 (single isomer, unassigned) [Example 1.6] | – | – | > 10000 | 1780 | – |
| Cc1nc2nc(C(Cc3cc(F)cc(F)c3)NC(=O)Cn3nc(C(F)F)c4c3CCC4)c(-c3ccc(Cl)c4c(NS(C)(=O)=O)nn(C)c34)cc2s1 (single isomer, unassigned) [Example 2.4, N-(1-(6-(4-chloro-1-methyl-3-(methylsulfonamido)-1H-indazol-7-yl)-2-methylthiazolo[4,5-b]pyridin-5-yl)-2-(3,5-difluorophenyl)ethyl)-2-(3-(difluoromethyl)-5,6-dihydrocyclopenta[c]pyrazol-1(4H)-yl)acetamide] | – | – | > 10000 | 690 | – |
| Cn1nc(NS(C)(=O)=O)c2c(Cl)ccc(-n3c([C@H](Cc4cc(F)cc(F)c4)NC(=O)Cn4nc(C(F)F)c5c4C(F)(F)[C@@H]4C[C@H]54)nc4cccc(C(F)(F)F)c4c3=O)c21 (single isomer, unassigned) [Example 128] | > 1000 | 0.62 | – | – | – |
| Cn1ccc2nc([C@@H](Cc3cc(F)cc(F)c3)NC(=O)Cn3nc(C(F)F)c4c3C(F)(F)[C@@H]3C[C@H]43)c(-c3ccc(Cl)c4c(NS(C)(=O)=O)nn(C)c34)cc21 (single isomer, unassigned) [Example 122] | > 10000 | 172 | – | – | – |
| Cn1nc(NS(C)(=O)=O)c2c(Cl)ccc(-n3c([C@H](Cc4cc(F)cc(F)c4)NC(=O)Cn4nc(C(F)F)c5c4C(F)(F)[C@@H]4C[C@H]54)nc4cc(C(F)(F)F)ccc4c3=O)c21 (single isomer, unassigned) [Example 138] | > 1000 | 0.042 | – | – | – |
| Cn1nc(NS(C)(=O)=O)c2c(Cl)ccc(-c3cc4cn[nH]c4nc3C(Cc3cc(F)cc(F)c3)NC(=O)Cn3nc(C(F)F)c4c3C(F)(F)[C@@H]3C[C@H]43)c21 (single isomer, unassigned) [Example 6.2] | – | – | > 10000 | 4.3 | – |
| Cc1cccc2c(=O)n(-c3ccc(Cl)c4c(NS(C)(=O)=O)nn(C)c34)c([C@H](Cc3cc(F)cc(F)c3)NC(=O)Cn3nc(C(F)F)c4c3C(F)(F)[C@@H]3C[C@H]43)nc12 (single isomer, unassigned) [Example 98] | > 1000 | 0.747 | – | – | – |
| O=C(Cc1c[nH]c2ccc(F)cc12)NC(Cc1cc(F)cc(F)c1)c1nc2cn[nH]c2cc1-c1ccc2scnc2c1 (single isomer, unassigned) [Example 3.6, N-(1-(6-(benzo[d]thiazol-5-yl)-1H-pyrazolo[4,3-b]pyridin-5-yl)-2-(3,5-difluorophenyl)ethyl)-2-(5-fluoro-1H-indol-3-yl)acetamide] | – | – | 32600 | 230 | – |
| O=C(Cn1nc(C(F)F)c2c1C(F)(F)[C@@H]1C[C@H]21)NC(Cc1cc(F)cc(F)c1)c1ncc2nc[nH]c2c1-c1ccc2scnc2c1 (single isomer, unassigned) [Example 7.2] | – | – | 17500 | 9 | – |
| Cc1cccc2nc([C@H](Cc3cc(F)cc(F)c3)NC(=O)Cn3nc(C(F)F)c4c3C(F)(F)[C@@H]3C[C@H]43)n(-c3ccc(Cl)c4c(NS(C)(=O)=O)nn(C)c34)c(=O)c12 (single isomer, unassigned) [Example 126] | > 1000 | 0.054 | – | – | – |
